The values below come from article PMC7413254 (Nature Communications, 2020).

Common to all, as to assay type: cell-based
One assay deals with T1, PfNT1 (Plasmodium falciparum, UniProt Q8IDM6).
T1 construct: expressed in transfected cells; host or cells: Xenopus laevis oocytes (stage V-VI), cRNA-injected
Kind of assay: cell-based. Particulars: trans-stimulation, solute 45 mM injected (estimated intracellular). The gist of the method:
(§1)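 Oocytes (ten per treatment, ≥4 independent frogs/days) were preloaded by injecting VF-6 in 25 nL ND96 at pH 5.0, 5.5, 6.0 or 7.0, or Na^+-free choline buffer, then uptake run 1.5 h, 27.5 °C, ND96 pH 5.5 by default. Internal concentrations assumed ~400 nL oocyte volume.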

Another assay addresses PfCRT^3D7 (Plasmodium falciparum, UniProt Q8IBZ9). The experiment in a line: cell-based. Particulars: for [3H]CQ transport, PfCRT3D7 (% PfCRT3D7 control): solute 45 mM injected (estimated intracellular). The gist of the method: as §1
The target in assay [1] is T2, PfCRT^Ecu1110 (Plasmodium falciparum, UniProt Q9N623, A220S/I356L/K76T/N326D). Kind of assay: [3H]CQ uptake into Xenopus oocytes, cis-inhibition by unlabelled solute. To be noted: for PfCRT-mediated [3H]CQ transport, cis-inhibition (% PfCRTEcu1110 control): PfCRTEcu1110 oocytes, background [3H]CQ accumulation subtracted, normalised to oocyte type control. A digest of the protocol:
(§2)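 ND96, pH 5.5, 1.5 h, 27.5 °C; uptake direction acidic outside → oocyte cytosol, mimicking efflux from digestive vacuole. Ice-cold wash stop, 10% SDS lysis, scintillation counting. Ten oocytes/treatment, ≥4 independent experiments.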

Assay [2] deals with T3, PfCRT^Dd2 (Plasmodium falciparum, UniProt Q9N623, A220S/I356T/K76T/M74I/N326S/N75E/Q271E/R371I). The assay is described as above. Particulars: for PfCRT-mediated [3H]CQ transport, cis-inhibition (% PfCRTDd2 control): PfCRTDd2 oocytes, background [3H]CQ accumulation subtracted, normalised to oocyte type control. The gist of the method:
as §2

Assay [3] deals with T2, PfCRT^Ecu1110. The experiment in a line: cell-based. To be noted: PfCRTEcu1110 oocytes, normalised to oocyte type control. A digest of the protocol: as §1
For assay [4], the target named is T3, PfCRT^Dd2. Kind of assay: cell-based. A digest of the protocol: as §1
The mark [5] stands for this setting: trans-stimulation, Experiment 1.
The mark [6] stands for this setting: trans-stimulation, Experiment 2.
[7] abbreviates: trans-stimulation, Experiment 3.
[8] abbreviates: trans-stimulation, Experiment 4.
The mark [9] stands for this setting: read-out: PfCRT-mediated [3H]CQ transport, cis-inhibition (% PfCRTEcu1110 control).
Setting [10] is: read-out: [3H]CQ transport (% PfCRTEcu1110 control), cis-inhibition, PfCRTEcu1110, SEM.
[11] abbreviates: read-out: PfCRT-mediated [3H]CQ transport, cis-inhibition (% PfCRTDd2 control).

Read-outs that look alike come from different tables or passages of the source. Where no end group is shown, it is not given here.

Sequence of PfCRT^3D7 (Q8IBZ9 59-398): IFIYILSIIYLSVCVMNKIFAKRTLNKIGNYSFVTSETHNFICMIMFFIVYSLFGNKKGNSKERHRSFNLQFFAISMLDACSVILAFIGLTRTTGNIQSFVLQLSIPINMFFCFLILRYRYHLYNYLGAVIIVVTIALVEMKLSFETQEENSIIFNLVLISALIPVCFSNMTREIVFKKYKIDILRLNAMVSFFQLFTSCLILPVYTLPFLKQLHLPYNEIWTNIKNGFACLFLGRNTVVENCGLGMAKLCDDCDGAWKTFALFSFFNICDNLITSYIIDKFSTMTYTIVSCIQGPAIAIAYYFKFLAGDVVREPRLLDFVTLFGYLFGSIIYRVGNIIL
T3 sequence (Q9N623 whole entry A220S/I356T/K76T/M74I/N326S/N75E/Q271E/R371I): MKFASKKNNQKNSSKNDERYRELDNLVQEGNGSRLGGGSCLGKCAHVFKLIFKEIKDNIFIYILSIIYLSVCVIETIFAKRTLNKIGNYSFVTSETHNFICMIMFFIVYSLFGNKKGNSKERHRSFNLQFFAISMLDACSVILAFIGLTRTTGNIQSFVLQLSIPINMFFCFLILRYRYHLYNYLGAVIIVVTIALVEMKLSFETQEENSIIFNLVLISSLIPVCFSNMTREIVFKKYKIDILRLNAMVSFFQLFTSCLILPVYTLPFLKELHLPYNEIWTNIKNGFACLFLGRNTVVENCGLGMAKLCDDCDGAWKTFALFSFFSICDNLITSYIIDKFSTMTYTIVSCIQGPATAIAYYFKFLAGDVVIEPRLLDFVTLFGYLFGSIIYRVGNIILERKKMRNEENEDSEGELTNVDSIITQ
T1 sequence (Q8IDM6 whole entry): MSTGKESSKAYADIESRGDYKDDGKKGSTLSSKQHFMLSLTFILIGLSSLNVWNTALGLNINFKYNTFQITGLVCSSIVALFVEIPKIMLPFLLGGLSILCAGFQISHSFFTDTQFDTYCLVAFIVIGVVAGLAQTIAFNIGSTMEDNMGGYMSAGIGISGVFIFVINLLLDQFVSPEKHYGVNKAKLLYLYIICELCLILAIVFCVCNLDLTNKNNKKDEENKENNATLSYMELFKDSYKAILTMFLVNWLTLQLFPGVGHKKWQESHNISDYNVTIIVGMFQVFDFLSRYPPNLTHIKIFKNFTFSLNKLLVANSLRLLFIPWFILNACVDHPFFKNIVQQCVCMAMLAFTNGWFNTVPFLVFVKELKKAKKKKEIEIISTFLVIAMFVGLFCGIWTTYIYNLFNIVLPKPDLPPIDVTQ
T2 sequence (Q9N623 whole entry A220S/I356L/K76T/N326D): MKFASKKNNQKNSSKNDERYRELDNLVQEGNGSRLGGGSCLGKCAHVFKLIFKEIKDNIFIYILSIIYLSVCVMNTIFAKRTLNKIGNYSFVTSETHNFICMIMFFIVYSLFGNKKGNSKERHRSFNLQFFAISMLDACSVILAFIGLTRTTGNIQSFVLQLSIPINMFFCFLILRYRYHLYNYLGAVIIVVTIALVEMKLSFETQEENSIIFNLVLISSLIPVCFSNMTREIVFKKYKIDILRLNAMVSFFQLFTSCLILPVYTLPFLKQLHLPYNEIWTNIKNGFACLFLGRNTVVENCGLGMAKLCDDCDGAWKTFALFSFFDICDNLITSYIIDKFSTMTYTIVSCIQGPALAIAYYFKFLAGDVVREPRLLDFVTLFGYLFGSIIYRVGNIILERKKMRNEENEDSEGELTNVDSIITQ

With AHAGEYGAEALE [AE-12], the “[3H]CQ transport, PfNT1 (% PfCRTDd2 control)” value on PfNT1 (Experiment 1) is reported as 2.23 % PfCRTDd2 control; on PfNT1 (Experiment 2), 2.37 % PfCRTDd2 control; at PfNT1 (Experiment 3), 2.71 % PfCRTDd2 control; on PfNT1 (Experiment 4), 2.43 % PfCRTDd2 control. Besides, the “[3H]CQ transport, PfCRT3D7 (% PfCRT3D7 control)” value at PfCRT^3D7 (setting [5]) is reported as 100.93 % PfCRT3D7 control; at PfCRT^3D7 (setting [6]), 94.28 % PfCRT3D7 control; on PfCRT^3D7 (setting [7]), 100.75 % PfCRT3D7 control; on PfCRT^3D7 (setting [8]), 102.32 % PfCRT3D7 control.

DLHAHKLR [DR-8]: the “PfCRT-mediated [3H]CQ transport, cis-inhibition (% PfCRTEcu1110 control)” value was found to be 58 ± 1.2 % PfCRTEcu1110 control at PfCRT^Ecu1110 [1] ([test solute] = 0.5 mM), 42 ± 2.6 % PfCRTEcu1110 control on PfCRT^Ecu1110 [1] ([test solute] = 1 mM) and 28 ± 2.4 % PfCRTEcu1110 control at PfCRT^Ecu1110 [1] ([test solute] = 2 mM). Also, the “PfCRT-mediated [3H]CQ transport, cis-inhibition (% PfCRTDd2 control)” value at PfCRT^Dd2 [2] ([test solute] = 0.5 mM) is on record as 47 ± 3.9 % PfCRTDd2 control; at PfCRT^Dd2 [2] ([test solute] = 1 mM), 31 ± 2.1 % PfCRTDd2 control; at PfCRT^Dd2 [2] ([test solute] = 2 mM), 12 ± 0.9 % PfCRTDd2 control. Besides, the entries for the “PfCRT-mediated [3H]CQ transport, trans-stimulation (% PfCRTEcu1110 control)” value on PfCRT^Ecu1110 [3] ([test solute]i = 5 mM (intracellular)) and on PfCRT^Ecu1110 [3] ([test solute]i = 45 mM (intracellular; 30 mM for some solutes due to solubility)) were 130 ± 3.3 % PfCRTEcu1110 control and 139 ± 3.7 % PfCRTEcu1110 control, respectively. Moreover, the “[3H]CQ transport, PfNT1 (% PfCRTDd2 control)” value at PfNT1 (Experiment 1) is given as 3.43 % PfCRTDd2 control; at PfNT1 (Experiment 2), 3.47 % PfCRTDd2 control; on PfNT1 (Experiment 3), 3.21 % PfCRTDd2 control; on PfNT1 (Experiment 4), 3.51 % PfCRTDd2 control. The “PfCRT-mediated [3H]CQ transport, trans-stimulation (% PfCRTDd2 control)” value on PfCRT^Dd2 [4] ([test solute]i = 5 mM (intracellular), PfCRTDd2 oocytes, normalised to oocyte type control) is given as 100 ± 2.9 % PfCRTDd2 control; at PfCRT^Dd2 [4] ([test solute]i = 45 mM (intracellular; 30 mM for some solutes due to solubility), PfCRTDd2 oocytes, normalised to oocyte type control), 110 ± 3.7 % PfCRTDd2 control. In addition, the “PfCRT-mediated [3H]CQ transport, trans-stimulation (% PfCRT3D7 control)” value at PfCRT^3D7 ([test solute]i = 5 mM (intracellular), PfCRT3D7 oocytes, normalised to oocyte type control) is 130 ± 5.2 % PfCRT3D7 control; on PfCRT^3D7 ([test solute]i = 45 mM (intracellular; 30 mM for some solutes due to solubility), PfCRT3D7 oocytes, normalised to oocyte type control), 181 ± 5.2 % PfCRT3D7 control. The “[3H]CQ transport, PfCRT3D7 (% PfCRT3D7 control)” value on PfCRT^3D7 (setting [5]) is 184.56 % PfCRT3D7 control; at PfCRT^3D7 (setting [6]) it was 199.32 % PfCRT3D7 control; at PfCRT^3D7 (setting [7]) it was 173.32 % PfCRT3D7 control; at PfCRT^3D7 (setting [8]), 194.32 % PfCRT3D7 control.

As to HVDDM [HM-5], the inhibition at 1000 µM at PfCRT^Ecu1110 [1] (setting [9]) was 41 ± 3.5%; on PfCRT^Dd2 [2] (setting [11]), 19 ± 2%. In addition, the inhibition at 2000 µM at PfCRT^Ecu1110 [1] (setting [9]) came out at 32 ± 2.1%; at PfCRT^Ecu1110 [1] (setting [10]) it was 10 ± 0.5%; on PfCRT^Dd2 [2] (setting [11]), 9 ± 0.1%. The values for the inhibition at 500 µM at PfCRT^Ecu1110 [1] (setting [10]) and on PfCRT^Dd2 [2] (setting [11]) were 14 ± 0.1% and 32 ± 0.8%, respectively. Further, the activity at 5000 µM turned out to be 122 ± 1.1% at PfCRT^Ecu1110 [3] ([…], pH 5.5, read-out: PfCRT-mediated [3H]CQ transport, trans-stimulation (% PfCRTEcu1110 control), [test solute]i = 5 mM (intracellular)); 100 ± 2.5% at PfCRT^Dd2 [4] ([…], pH 5.5, read-out: PfCRT-mediated [3H]CQ transport, trans-stimulation (% PfCRTDd2 control), [test solute]i = 5 mM (intracellular), PfCRTDd2 oocytes, normalised to oocyte type control); 100 ± 2.5% on PfCRT^Dd2 [4] ([…], pH 5.5, read-out: [3H]CQ transport (% PfCRTDd2 control), trans-stimulation, PfCRTDd2, trans-stimulation, [test solute]i = 5 mM (injected), PfCRT-mediated component (background subtracted), mean ± SEM, SEM); 130 ± 4.2% at PfCRT^3D7 ([…], read-out: PfCRT-mediated [3H]CQ transport, trans-stimulation (% PfCRT3D7 control), [test solute]i = 5 mM (intracellular), PfCRT3D7 oocytes, normalised to oocyte type control). The “[3H]CQ transport, PfNT1 (% PfCRTDd2 control)” value is 3.35 % PfCRTDd2 control at PfNT1 (Experiment 1), 3.11 % PfCRTDd2 control on PfNT1 (Experiment 2), 3.44 % PfCRTDd2 control at PfNT1 (Experiment 3) and 3.27 % PfCRTDd2 control at PfNT1 (Experiment 4). Besides, the activity at 45000 µM on PfCRT^Dd2 [4] ([…], pH 5.5, read-out: [3H]CQ transport (% PfCRTDd2 control), trans-stimulation, PfCRTDd2, trans-stimulation, [test solute]i = 45 mM (30 mM for some solutes due to solubility), PfCRT-mediated component (background subtracted), mean ± SEM, SEM) was 113 ± 2.2%; at PfCRT^3D7 ([…], read-out: PfCRT-mediated [3H]CQ transport, trans-stimulation (% PfCRT3D7 control), [test solute]i = 45 mM (intracellular; 30 mM for some solutes due to solubility), PfCRT3D7 oocytes, normalised to oocyte type control), 178 ± 5.2%. For the same substance, the “[3H]CQ transport, PfCRT3D7 (% PfCRT3D7 control)” value was 193.43 % PfCRT3D7 control at PfCRT^3D7 (setting [5]), 185.08 % PfCRT3D7 control at PfCRT^3D7 (setting [6]), 185.21 % PfCRT3D7 control at PfCRT^3D7 (setting [7]) and 174.23 % PfCRT3D7 control on PfCRT^3D7 (setting [8]). The “[3H]CQ transport (% PfCRT3D7 control), trans-stimulation, PfCRT3D7” value on PfCRT^3D7 (trans-stimulation, [test solute]i = 5 mM (injected), PfCRT-mediated component (background subtracted), sheet title says normalised to PfCRTDd2 control, mean ± SEM, SEM) turned out to be 0.2 ± 0.01 % PfCRT3D7 control.
